According to patent publication US8263605B2, “Modulators of muscarinic receptors” (Vertex Pharmaceutical Incorporated, priority 2006, dated 2012):

Key:
[1] = molecular target: T1, M1 muscarinic receptor (Homo sapiens, UniProt P11229); experiment: Functional mobilization of intracellular calcium (FLIPR), M1-CHO cells; format: cell-based; conditions: for Emax: 100% efficacy is the maximum response obtained with the Carbachol control; for M1 Activity: CHO cells expressing M1, calcium mobilization
T1 construct: expressed in transfected cells; host or cells: CHO (M1-CHO)
T1 sequence (P11229 1-460): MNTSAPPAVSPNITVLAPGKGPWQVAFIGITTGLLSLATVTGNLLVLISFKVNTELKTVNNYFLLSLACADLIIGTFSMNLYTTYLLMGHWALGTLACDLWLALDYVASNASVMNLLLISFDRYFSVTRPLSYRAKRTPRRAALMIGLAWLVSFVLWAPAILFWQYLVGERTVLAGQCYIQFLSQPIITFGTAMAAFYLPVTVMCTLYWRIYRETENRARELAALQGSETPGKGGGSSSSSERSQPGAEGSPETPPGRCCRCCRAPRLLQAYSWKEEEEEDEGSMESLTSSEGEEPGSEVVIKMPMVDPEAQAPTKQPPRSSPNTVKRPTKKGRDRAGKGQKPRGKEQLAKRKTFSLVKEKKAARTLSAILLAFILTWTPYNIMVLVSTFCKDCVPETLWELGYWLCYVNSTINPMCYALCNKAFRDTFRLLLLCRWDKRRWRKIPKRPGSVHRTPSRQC
Method in brief: (§1)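 Recombinant CHO cells loaded with Fluo-3 AM or Calcium 3 dye; fluorescence recorded 60 s on FLIPR in pH 7.4 buffer with 1 mM probenecid, 0.5% DMSO. Agonist mode: compound alone; antagonist mode: 15 min preincubation (or co-application) then carbachol at EC80. Efficacy relative to maximal carbachol response.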

[2] = molecular target: T2, M4 muscarinic receptor (Homo sapiens, UniProt P08173); experiment: Functional mobilization of intracellular calcium (FLIPR), M4-CHO cells; format: cell-based; conditions: for Emax: 100% efficacy is the maximum response obtained with the Carbachol control; for M4 Activity: CHO cells expressing M4, calcium mobilization
T2 construct: expressed in transfected cells; host or cells: CHO (M4-CHO)
T2 sequence (P08173 1-479): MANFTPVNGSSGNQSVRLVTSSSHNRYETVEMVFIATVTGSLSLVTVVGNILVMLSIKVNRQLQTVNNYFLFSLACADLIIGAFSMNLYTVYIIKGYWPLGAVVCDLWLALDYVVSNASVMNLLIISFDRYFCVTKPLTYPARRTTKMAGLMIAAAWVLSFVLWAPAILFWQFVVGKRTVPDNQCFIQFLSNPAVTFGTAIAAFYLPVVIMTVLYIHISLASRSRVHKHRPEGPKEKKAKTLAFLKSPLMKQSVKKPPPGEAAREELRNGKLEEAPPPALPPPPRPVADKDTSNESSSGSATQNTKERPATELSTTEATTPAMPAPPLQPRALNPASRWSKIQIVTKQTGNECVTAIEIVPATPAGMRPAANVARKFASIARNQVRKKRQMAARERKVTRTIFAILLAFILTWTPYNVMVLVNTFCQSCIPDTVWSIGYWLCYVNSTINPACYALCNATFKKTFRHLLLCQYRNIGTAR
Method in brief: as §1

Row | Structure (SMILES) | Emax [1] [%] | M1 Activity [1] | Emax [2] [%] | M4 Activity [2]
1 | Cc1nsc(N2CCC(N3CCC4(CC3)CN(C(=O)N(C)C)c3ccccc34)CC2)n1 [compound 53] | 25 to 100 | +++ (activity was measured to be less than 2.0 μM) | > 100 | +++ (activity was measured to be less than 2.0 μM)
2 | CCOC(=O)N1C2CCC1CC(N1CCC3(CC1)CN(C(=O)N(C)C)c1ccccc13)C2 (centres unmarked) [compound 46] | 25 to 100 | +++ (activity was measured to be less than 2.0 μM) | 25 to 100 | +++ (activity was measured to be less than 2.0 μM)
3 | C=Cc1cncc(N2CCC(N3CCC4(CC3)CN(C(=O)N(C)C)c3ccccc34)CC2)n1 [compound 114] | < 25 | + (activity was measured to be greater than 10.0 μM) | 25 to 100 | +++ (activity was measured to be less than 2.0 μM)
4 | COC(=O)N1C2CCC1CC(N1CCC3(CCN(C(=O)N(C)C)c4ccccc43)CC1)C2 (centres unmarked) [compound 26] | 25 to 100 | ++ (activity was measured to be from 2.0 μM to 10.0 μM) | 25 to 100 | +++ (activity was measured to be less than 2.0 μM)
5 | COCCOC(=O)N1CC[C@H](CN2CCC3(CC2)CN(C(=O)N(C)C)c2ccccc23)C1 [compound 64] | 25 to 100 | ++ (activity was measured to be from 2.0 μM to 10.0 μM) | 25 to 100 | +++ (activity was measured to be less than 2.0 μM)
6 | CN(C)C(=O)N1CC2(CCN(C3CCN(C(=O)OCC(F)F)CC3)CC2)c2ccccc21 [compound 42] | 25 to 100 | +++ (activity was measured to be less than 2.0 μM) | 25 to 100 | +++ (activity was measured to be less than 2.0 μM)
7 | COC(=O)N1CCC(N2CCC3(CCN(C(=O)N(C)C)c4ccccc43)CC2)CC1 [compound 2] | 25 to 100 | +++ (activity was measured to be less than 2.0 μM) | 25 to 100 | +++ (activity was measured to be less than 2.0 μM)
8 | CCCOC(=O)N1C2CCC1CC(N1CCC3(CC1)CN(C(=O)N(C)C)c1ccccc13)C2 (centres unmarked) [compound 47] | 25 to 100 | +++ (activity was measured to be less than 2.0 μM) | 25 to 100 | +++ (activity was measured to be less than 2.0 μM)
